# From US5488106A
# Entries after “also recorded” stand apart in the source; their conditions may differ. Structures can show the parent of a compound that is named as a salt. Where two headings read alike, the source gives them in different places.
# Columns and labels:
# [1] = target: β-lactamase Tal 3636 CcrA (Bacteroides fragilis, UniProt P25910); experiment: biochemical; type: biochemical
# Experimental: Representative compounds of the present invention are also tested to determine inhibition of an isolated metallo enzyme Group 3, the β-lactamase Tal 3636 CcrA. […] In the CI assay, enzyme is added last to a mixture of inhibitor and buffer. In the TDI assay, nitrocefin is added last to a mixture of enzyme and inhibitor that had been incubating for approximately 7 minutes.
# [2] = system: E. coli strains containing β-lactamases; experiment: Microbiological testing with piperacillin, β-lactamase-containing strains (summary in words); conditions: β-lactamase-producing strains
# metallo-β-lactamase = metallo-β-lactamase (Bacteroides fragilis, UniProt P25910); experiment: Long term inactivation of the metallo-β-lactamase, residual activity on nitrocefin; type: biochemical; conditions: for remaining activity at 8 µM: 42 s, 8 μM inhibitor, after 0.7 minutes, read-out: control activity of metallo-β-lactamase remaining
# Experimental: To test for long term inactivation of the metallo-β-lactamase, the inhibitors are mixed with enzyme and incubated overnight. Enzyme activity is tested for at periodic intervals by diluting the enzyme-inhibitor mixture into nitrocefin and comparing the enzymatic activity against that of an enzyme incubated only in assay broth. […].
# P99 (Cephase) = P99 (Cephase) (Enterobacter cloacae, UniProt P05364); experiment: Spectrophotometric inhibition with 10 minute preincubation, nitrocefin substrate; type: biochemical; conditions: for IC50: 10 minute preincubation, 25° C.
# CcrA (Metallo) = CcrA (Metallo) (Bacteroides fragilis, UniProt P25910); experiment: as above; type: biochemical; conditions: for IC50: 10 minute preincubation, 25° C.
# PC1 (Penase) = PC1 (Penase) (Staphylococcus aureus, UniProt P00807); experiment: as above; type: biochemical
# TEM-2 (Bd Spectrum) = TEM-2 (Bd Spectrum) (Escherichia coli, UniProt P62593, Q37K); type: biochemical; conditions: Table III
# E. cloacae + P99 = experiment: MIC of piperacillin, broth serial two-fold dilutions, alone or 1:1 with inhibitor; conditions: piperacillin alone
# [3] = system: E. coli 300 + CcrA (metallo-enzyme); experiment: as above; conditions: piperacillin alone
# E. coli + TEM-1 = experiment: as above; conditions: piperacillin alone
# E. coli 300 = experiment: as above; conditions: piperacillin alone
# [4] = system: E. coli 300 + P99 (cephase); experiment: as above; conditions: piperacillin alone
# [5] = CI: enzyme added last, 0.010M HEPES, pH 7.4, nitrocefin 100 μg/ml, read-out: IC50 CI HEPES
# [6] = CI: enzyme added last, 0.05M phosphate buffer, pH 7.0, nitrocefin 100 μg/ml, read-out: IC50 CI PHOSPHATE
# [7] = TDI: approximately 7 minutes incubation, nitrocefin added last, 0.010M HEPES, pH 7.4, read-out: IC50 TDI HEPES
# [8] = TDI: approximately 7 minutes incubation, nitrocefin added last, 0.05M phosphate buffer, pH 7.0, read-out: IC50 TDI PHOSPHATE
# [9] = TDI: approximately 7 minutes incubation, nitrocefin added last, 0.010M HEPES, pH 7.4, 7 min, read-out: IC50 TDI HEPES
# [10] = TDI: approximately 7 minutes incubation, nitrocefin added last, 0.05M phosphate buffer, pH 7.0, 7 min, read-out: IC50 TDI PHOSPHATE
# [11] = 10 minute preincubation, 25° C., read-out: IC50 PC1 (Penase)
smiles,measurement,setting,value
"CCC1=NOC(CC2C(=O)N3C(C(=O)O)C(C)(C)S(=O)(=O)C23)C1 (single isomer, unassigned) [Example 12]",IC50,[1]; [5],> 250 µM
same,IC50,[1]; [6],> 250 µM
same,IC50,[1]; [7],77 µM
same,IC50,[1]; [8],120 µM
"CC1(C)[C@H](C(=O)O)N2C(=O)[C@@H](CC3CC(c4ccsc4)=NO3)[C@H]2S1(=O)=O (single isomer, unassigned) [Example 14, 4-Thia-1-azabicyclo[3.2.0.]heptane-2-carboxylic acid, 6-[[4,5-dihydro-3-(3-thienyl)-5-isoxazolyl]methyl]-3,3-dimethyl-7-oxo-, 4,4-dioxide, sodium salt, [2S-[2α, 5α, 6β(R* or S*)]]-]",IC50,[1]; [5],48 µM
same,IC50,[1]; [6],33 µM
same,IC50,[1]; [7],3.5 µM
same,IC50,[1]; [8],9.6 µM
"CC1(C)[C@H](C(=O)O)N2C(=O)[C@@H](CC3CC(Br)=NO3)[C@H]2S1(=O)=O (single isomer, unassigned) [Example 16, 4-Thia-1-azabicyclo[3.2.0]heptane-2-carboxylic acid, 6-[(3-bromo-4,5-dihydro-5-isoxazolyl)methyl]-3,3-dimethyl-7-oxo-, 4,4-dioxide, sodium salt, [2S-[2α,5α,6β(R* or S*)]]-]",IC50,[1]; [5],18 µM
same,IC50,[1]; [6],48 µM
same,IC50,[1]; [7],2.4 µM
same,IC50,[1]; [8],6 µM
"Cc1ccc(C2=NOC(C[C@@H]3C(=O)N4[C@@H](C(=O)O)C(C)(C)S(=O)(=O)[C@H]34)C2)cc1 (stereo partly drawn) [Example 4, 4-Thia-1-azabicyclo[3.2.0]heptane-2-carboxylic acid, 6-[[4,5-dihydro-3-(4-methylphenyl)-5-isoxazolyl]-methyl]-3,3-dimethyl-7-oxo-, sodium salt, 4,4-dioxide, [2R-[2α,5α,6β(R*)]]-]",Microbiological activity / effect on MICs of piperacillin (in words),[2],lowers the MICs for all the β-lactamases-producing strains; also recorded: more potent in vitro activity against the P99 cephase than the product of Example 10
same,remaining activity at 8 µM,metallo-β-lactamase,44%
same,metalloenzyme activity recovered,metallo-β-lactamase; after overnight incubation,71%
same,IC50,P99 (Cephase),0.0028 µM
same,Inhibition of P99 Group 1 cephalosporinase (in words),P99 (Cephase); Table III,very potent inhibitor of the P99 Group 1 cephalosporinase
same,IC50,CcrA (Metallo),0.65 µM
same,Inhibition of Group 3 metallo-β-lactamases (in words),CcrA (Metallo); Table III,inhibited about equally
same,IC50,[1]; [5],9.7 µM
same,IC50,[1]; [6],16 µM
same,IC50,[1]; [9],1.3 µM
same,IC50,[1]; [10],2 µM
same,IC50,PC1 (Penase); [11],0.72 µM
same,Inhibition of PC1 Group 2a penicillinase (in words),PC1 (Penase); Table III,inhibited about equally
same,Inhibition of 2b broad spectrum β-lactamase (in words),TEM-2 (Bd Spectrum),inhibited about equally
"Cc1ccc(C2=NOC(C[C@@H]3C(=O)N4[C@@H](C(=O)O)C(C)(C)S(=O)(=O)[C@H]34)C2)cc1 (stereo partly drawn) [Example 5, 4-Thia-1-azabicyclo[3.2.0.]heptane-2-carboxylic acid, 6-[[4,5-dihydro-3-(4-methylphenyl)-5-isoxazolyl]methyl]-3,3-dimethyl-7-oxo-, sodium salt, 4,4-dioxide, [2R-[2α,5α,6β(S*)]]-]",IC50,[1]; [5],27 µM
same,IC50,[1]; [6],68 µM
same,IC50,[1]; [9],2 µM
same,IC50,[1]; [10],6.9 µM
"CC(=O)OC(C1CC(c2ccc(C)cc2)=NO1)[C@@H]1C(=O)N2[C@@H](C(=O)O)C(C)(C)S(=O)(=O)[C@H]12 (stereo partly drawn) [Example 10, 4-Thia-1-azabicyclo[3.2,0]heptane-2-carboxylic acid, 6-[(acetyloxy)[4,5-dihydro-3-(4-methylphenyl)-5-isoxazolyl]methyl]-3,3-dimethyl-7-oxo-, sodium salt, 4,4-dioxide, [2S-(2α, 5α, 6β)]-]",Microbiological activity / effect on MICs of piperacillin (in words),[2],lowers the MICs of piperacillin for all the E. coli strains containing β-lactamases
same,remaining activity at 8 µM,metallo-β-lactamase,45%
same,enzyme activity lost,metallo-β-lactamase; after overnight incubation,> 99%
same,IC50,P99 (Cephase),2.4 µM
same,IC50,CcrA (Metallo),16 µM
same,IC50,[1]; [5],100 µM
same,IC50,[1]; [6],210 µM
same,IC50,[1]; [7],3.9 µM
same,IC50,[1]; [8],3.2 µM
same,IC50,PC1 (Penase); [11],8 µM
"CCN1CCN(C(=O)N[C@@H](C(=O)N[C@@H]2C(=O)N3[C@@H]2SC(C)(C)[C@@H]3C(=O)O)c2ccccc2)C(=O)C1=O [Piperacillin, piperacillin]",Microbiological activity / effect on MICs of piperacillin (in words),[2],decreased microbiological activity (increased MICs) in E. coli strains that had β-lactamases introduced into them
same,Minimum Inhibitory Concentration of Piperacillin,E. cloacae + P99,128 µg/mL
same,Minimum Inhibitory Concentration of Piperacillin,[3],4 µg/mL
same,Minimum Inhibitory Concentration of Piperacillin,E. coli + TEM-1,> 1024 µg/mL
same,Minimum Inhibitory Concentration of Piperacillin,E. coli 300,1 µg/mL
same,Minimum Inhibitory Concentration of Piperacillin,[4],16 µg/mL
"CC1(C)[C@H](C(=O)O)N2C(=O)C[C@H]2S1(=O)=O [Sulbactam, sulbactam, reference compound]",IC50,PC1 (Penase),0.08 µM
"C[C@]1(Cn2ccnn2)[C@H](C(=O)O)N2C(=O)C[C@H]2S1(=O)=O [Tazobactam, tazobactam, reference compound]",IC50,PC1 (Penase),0.032 µM
